Experimental findings from US7750017B2, “Heterocycles” (Bayer Schering Pharma Aktiengesellschaft, priority 2004, dated 2010) are described below.

Assay [1] deals with A431 cells [human epidermoid carcinoma, overexpressing HER1 (EGFR, ErbB1)]. Description: In vitro tumor cell proliferation assay (Cell Titer-Glo luminescent cell viability), A431 cells. Format: cell-based. Particulars: A-431, 72 h, 72 hours of drug exposure, Cell Titer-Glo readout, read-out: IC50, anti-proliferative activity in A431 cells.
Assay [2] relates to BT474 [human breast carcinoma, overexpressing HER2 (ErbB2)]. Nature of the assay: In vitro tumor cell proliferation assay (Cell Titer-Glo luminescent cell viability), BT474 cells. Particulars: BT-474, 72 h, 72 hours of drug exposure, Cell Titer-Glo readout, read-out: IC50, anti-proliferative activity in BT474 cells. Format: cell-based. (In ATP-based viability assays light output follows the ATP content of the culture.)

Counter-ions that a name gives are not always drawn.

On to `Fc1cccc(COc2ccc(Nc3ncnc4sc5cc(CCn6ccnc6)ccc5c34)cc2Cl)c1` [Example 7, [3-chloro-4-(3-fluoro-benzyloxy)-phenyl]-[7-(2-imidazol-1-yl-ethyl)-benzo[4,5]thieno[2,3-d]pyrimidin-4-yl]-amine], for which the half-maximal inhibitory concentration (IC50) in assay [1] is at most 50 µM; in assay [2], at most 5 µM.
With `O=C(Cc1ccc2c(c1)sc1ncnc(Nc3ccc(OCc4cccc(F)c4)c(Cl)c3)c12)N1CCOCC1` [Example 28, 2-{4-[3-Chloro-4-(3-fluoro-benzyloxy)-phenylamino]-benzo[4,5]thieno[2,3-]pyrimidin-7-yl}-1-morpholin-4-yl-ethanone], the IC50 in assay [1] was at most 5 µM; in assay [2], at most 0.5 µM.
Taken in the same sequence, the figures for `COCCN1CCN(C(=O)Cc2ccc3c(c2)sc2ncnc(Nc4ccc(OCc5ccccn5)c(Cl)c4)c23)CC1` [Example 104, N-[3-chloro-4-(pyridin-2-ylmethoxy)phenyl]-7-{2-[4-(2-methoxyethyl)piperazin-1-yl]-2-oxoethyl}[1]benzothieno [2,3-d]pyrimidin-4-amine] were at most 50 µM and at most 0.5 µM.
Taken in the same sequence, the figures for `COC[C@@H]1CCCN1C(=O)Cc1ccc2c(c1)sc1ncnc(Nc3ccc(OCc4ccccn4)c(Cl)c3)c12` [Example 107, N-[3-chloro-4-(pyridin-2-ylmethoxy)phenyl]-7-{2-[2-(methoxymethyl)pyrrolidin-1-yl]-2-oxoethyl}[1]benzothieno[2,3-d] pyrimidin-4-amine] were at most 5 µM and at most 5 µM.
Taken in the same sequence, the figures for `CN1CCN(CCc2ccc3c(c2)sc2ncnc(Nc4ccc(OCc5cccc(F)c5)c(Cl)c4)c23)CC1` [Example 21, N-{3-chloro-4-[(3-fluorobenzyl)oxy]phenyl}-7-[2-(4-methylpiperazin-1-yl)ethyl][1] benzothieno[2,3-d]pyrimidin-4-amine] were at most 5 µM and at most 0.5 µM.
Regarding `Clc1cc(Nc2ncnc3sc4cc(CCN5CCNCC5)ccc4c23)ccc1OCc1ccccn1` [Example 89, N-[3-chloro-4-(pyridin-2-ylmethoxy)phenyl]-7-(2-piperazin-1-ylethyl)[1]benzothieno[2,3-d] pyrimidin-4-amine trifluoroacetate], the half-inhibitory concentration (IC50) is at most 50 µM in assay [1] and at most 0.5 µM in assay [2].
Taken in the same sequence, the figures for `CCN1CCN(C(=O)CCc2ccc3c(c2)sc2ncnc(Nc4ccc(OCc5cccc(F)c5)c(Cl)c4)c23)CC1` [Example 67, N-{3-chloro-4-[(3-fluorobenzyl)oxy]phenyl}-7-[3-(4-ethylpiperazin-1-yl)-3-oxopropyl][1]benzothieno[2,3-d] pyrimidin-4-amine] were at most 50 µM and at most 5 µM.
As to `O=C(O)Cc1ccc2c(c1)sc1ncnc(Nc3ccc(OCc4cscn4)c(Cl)c3)c12` [Example 135, (4-{[3-chloro-4-(1,3-thiazol-4-ylmethoxy)phenyl]amino}[1]benzothieno[2,3-d]pyrimidin-7-yl) acetic acid], the IC50 in assay [1] is at most 50 µM; in assay [2], at most 5 µM.
Taken in the same sequence, the figures for `CN(C)[C@H]1CCN(CCc2ccc3c(c2)sc2ncnc(Nc4ccc(OCc5cccc(F)c5)c(Cl)c4)c23)C1` [Example 24, N-{3-chloro-4-[(3-fluorobenzyl)oxy]phenyl}-7-{2-[3-(dimethylamino)pyrrolidin-1-yl]ethyl}[1]benzothieno[2,3-d] pyrimidin-4-amine] were at most 5 µM and at most 5 µM.
Taken in the same sequence, the figures for `CN(C)[C@H]1CCN(C(=O)Cc2ccc3c(c2)sc2ncnc(Nc4ccc(OCc5cscn5)c(Cl)c4)c23)C1` [Example 143, N-[3-chloro-4-(1,3-thiazol-4-ylmethoxy)phenyl]-7-{2-[(3S)-3-(dimethylamino)pyrrolidin-1-yl]-2-oxoethyl}[1]benzothieno[2,3-d] pyrimidin-4-amine] were at most 5 µM and at most 0.5 µM.
Turning to `CN1CCN(C(=O)Cc2ccc3c(c2)sc2ncnc(Nc4ccc(OCc5cccc(F)c5)c(Cl)c4)c23)CC1` [Example 32, N-{3-chloro-4-[(3-fluorobenzyl)oxy]phenyl}-7-[2-(4-methylpiperazin-1-yl)-2-oxoethyl][1]benzothieno[2,3-d] pyrimidin-4-amine], the concentration for half-maximal inhibition (IC50) in assay [1] was at most 5 µM; in assay [2], at most 0.5 µM.
As to `CN1CCN(C(=O)Cc2ccc3c(c2)sc2ncnc(Nc4ccc5c(cnn5Cc5cccc(F)c5)c4)c23)CC1` [Example 124, N-[1-(3-fluorobenzyl)-1H-indazol-5-yl]-7-[2-(4-methylpiperazin-1-yl)-2-oxoethyl][1]benzothieno[2,3-d] pyrimidin-4-amine], the IC50 is at most 5 µM in assay [1] and at most 0.5 µM in assay [2].
Taken in the same sequence, the figures for `OCC(O)c1ccc2c(c1)sc1ncnc(Nc3ccc4c(cnn4Cc4ccccn4)c3)c12` (stereo not drawn) [Example 131, 1-(4-{[1-(pyridin-2-ylmethyl)-1H-indazol-5-yl]amino}[1]benzothieno [2,3-d]pyrimidin-7-yl)ethane-1,2-diol] were at most 50 µM and at most 0.5 µM.
With `OC[C@@H](O)COc1ccc2c(c1)sc1ncnc(Nc3ccc(OCc4ccccn4)c(Cl)c3)c12` [Example 111, (2R)-3-[(4-{[3-chloro-4-(pyridin-2-ylmethoxy)phenyl]amino}[1]benzothieno[2,3-d]pyrimidin-7-yl)oxy]propane-1,2-diol], the IC50 in assay [1] is at most 50 µM; in assay [2] it was at most 0.5 µM.
Taken in the same sequence, the figures for `C=Cc1ccc2c(c1)sc1ncnc(Nc3ccc4c(cnn4Cc4ccccn4)c3)c12` [Example 130, N-[1-(pyridin-2-ylmethyl)-1H-indazol-5-yl]-7-vinyl[1] benzothieno[2,3-d]pyrimidin-4-amine] were at most 50 µM and at most 0.5 µM.
Taken in the same sequence, the figures for `O=C(Cc1ccc2c(c1)sc1ncnc(Nc3ccc(OCc4cscn4)c(Cl)c3)c12)NCCCN1CCOCC1` [Example 139, 2-(4-{[3-chloro-4-(1,3-thiazol-4-ylmethoxy)phenyl]amino}[1]benzothieno[2,3-d]pyrimidin-7-yl)-N-(3-morpholin-4-ylpropyl) acetamide] were at most 50 µM and at most 5 µM.
Taken in the same sequence, the figures for `CN1CCN(CCc2ccc3c(c2)sc2ncnc(Nc4ccc5c(cnn5Cc5cccc(F)c5)c4)c23)CC1` [Example 128, N-[1-(3-fluorobenzyl)-1H-indazol-5-yl]-7-[2-(4-methylpiperazin-1-yl)ethyl][1]benzothieno[2,3-d] pyrimidin-4-amine] were at most 5 µM and at most 0.5 µM.
For `Oc1ccc2c(c1)sc1ncnc(Nc3ccc(OCc4cccc(F)c4)c(Cl)c3)c12` [Example 34, 4-({3-chloro-4-[(3-fluorobenzyl)oxy]phenyl}amino)[1]benzothieno[2,3-d]pyrimidin-7-ol], the IC50 is at most 50 µM in assay [1] and at most 0.5 µM in assay [2].
Taken in the same sequence, the figures for `Fc1cccc(COc2ccc(Nc3ncnc4sc5cc(CCN6CCCCC6)ccc5c34)cc2Cl)c1` [Example 17, N-{3-chloro-4-[(3-fluorobenzyl)oxy]phenyl}-7-(2-piperidin-1-ylethyl)[1] benzothieno[2,3-d]pyrimidin-4-amine] were at most 5 µM and at most 0.5 µM.
With `C=Cc1ccc2c(c1)sc1ncnc(Nc3ccc(OCc4ccccn4)c(Cl)c3)c12` [Example 72, N-[3-chloro-4-(pyridin-2-ylmethoxy)phenyl]-7-vinyl[1]benzothieno[2,3-d]pyrimidin-4-amine], the results for the IC50 in assay [1] and in assay [2] were at most 50 µM and at most 5 µM, respectively.
Taken in the same sequence, the figures for `O=C(Cc1ccc2c(c1)sc1ncnc(Nc3ccc(OCc4cscn4)c(Cl)c3)c12)NCCO` [Example 141, 2-(4-{[3-chloro-4-(1,3-thiazol-4-ylmethoxy)phenyl]amino}[1]benzothieno[2,3-d]pyrimidin-7-yl)-N-(2-hydroxyethyl)acetamide] were at most 50 µM and at most 5 µM.
For the molecule `OCCc1ccc2c(c1)sc1ncnc(Nc3ccc(OCc4ccccn4)c(Cl)c3)c12` [Example 82, 2-(4-{[3-chloro-4-(pyridin-2-ylmethoxy)phenyl]amino}[1]benzothieno[2,3-d]pyrimidin-7-yl) ethanol], the concentration for half-maximal inhibition (IC50) was at most 5 µM in assay [1] and at most 0.5 µM in assay [2].
Taken in the same sequence, the figures for `OC[C@H](O)c1ccc2c(c1)sc1ncnc(Nc3ccc(OCc4ccccn4)c(Cl)c3)c12` [Example 75, (1R)-1-(4-{[3-chloro-4-(pyridin-2-ylmethoxy)phenyl]amino}[1]benzothieno[2,3-d]pyrimidin-7-yl)ethane-1,2-diol] were at most 50 µM and at most 0.5 µM.
Taken in the same sequence, the figures for `COCCNC(=O)/C=C/c1ccc2c(c1)sc1ncnc(Nc3ccc(OCc4cccc(F)c4)c(Cl)c3)c12` [Example 50, (2E)-3-[4-({3-chloro-4-[(3-fluorobenzyl)oxy]phenyl}amino) [1]benzothieno[2,3-d]pyrimidin-7-yl]-N-(2-methoxyethyl)acrylamide] were at most 50 µM and at most 0.5 µM.
Taken in the same sequence, the figures for `OCC(CO)Oc1ccc2c(c1)sc1ncnc(Nc3ccc(OCc4cccc(F)c4)c(Cl)c3)c12` [Example 43, 2-{[4-({3-chloro-4-[(3-fluorobenzyl)oxy]phenyl}amino) [1]benzothieno[2,3-d]pyrimidin-7-yl]oxy}propane-1,3-diol trifluoroacetate (salt)] were at most 50 µM and at most 0.5 µM.
In the case of `Fc1cccc(COc2ccc(Nc3ncnc4sc5cc(CCN6CCNCC6)ccc5c34)cc2Cl)c1` [Example 23, N-{3-chloro-4-[(3-fluorobenzyl)oxy]phenyl}-7-(2-piperazin-1-ylethyl)[1]benzothieno [2,3-d]pyrimidin-4-amine], the 50% inhibitory concentration (IC50) in assay [1] is at most 5 µM; in assay [2], at most 0.5 µM.
Taken in the same sequence, the figures for `OC[C@H](O)COc1ccc2c(c1)sc1ncnc(Nc3ccc(OCc4ccccn4)c(Cl)c3)c12` [Example 112, (2S)-3-[(4-{[3-chloro-4-(pyridin-2-ylmethoxy)phenyl]amino}[1]benzothieno[2,3-d]pyrimidin-7-yl)oxy]propane-1,2-diol] were at most 5 µM and at most 0.5 µM.

By IC50 is commonly meant the concentration at which inhibition is half-maximal.
